Measurements taken from the supplement of paper PMC10307832.

Tests used:
Experiment in all cases: relative viability (nuclei count vs DMSO), 5 days (fraction); higher = more cells survive
ChaGo-K-1 = tested on: ChaGo-K-1
Outline: (§1)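 Lung cancer cell lines, seeded in 1536-well plates, were treated the following day by pin tool with a single drug or with five library-drug doses (not always all listed) in √10 steps on top of a fixed anchor-drug dose. Cells were fixed and nuclei stained in one step after 5 days, and nuclei were counted. Relative viability is the nuclei count for treated wells divided by that for vehicle wells, reported as medians of duplicate plates.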

RERF-LC-KJ = tested on: RERF-LC-KJ
Outline: as §1

NCI-H2087 = tested on: NCI-H2087
Outline: as §1

BEN = tested on: BEN
Outline: as §1

NCI-H1792 = tested on: NCI-H1792
Outline: as §1

LU99A = tested on: LU99A
Outline: as §1

EMC-BAC-2 = tested on: EMC-BAC-2
Outline: as §1

EKVX = tested on: EKVX
Outline: as §1

LK-2 = tested on: LK-2
Outline: as §1

NCI-H1734 = tested on: NCI-H1734
Outline: as §1

LOU-NH91 = tested on: LOU-NH91
Outline: as §1

NCI-H358 = tested on: NCI-H358
Outline: as §1

HCC-78 = tested on: HCC-78
Outline: as §1

HCC-827 = tested on: HCC-827
Outline: as §1

NCI-H1650 = tested on: NCI-H1650
Outline: as §1

NCI-H2126 = tested on: NCI-H2126
Outline: as §1

COR-L 105 = tested on: COR-L 105
Outline: as §1

NCI-H1944 = tested on: NCI-H1944
Outline: as §1

SW 1573 = tested on: SW 1573
Outline: as §1

EPLC-272H = tested on: EPLC-272H
Outline: as §1

SK-MES-1 = tested on: SK-MES-1
Outline: as §1

LCLC-97TM1 = tested on: LCLC-97TM1
Outline: as §1

SMILES: O=c1[nH]c2ccccc2n1C1CCN(CCCC(c2ccc(F)cc2)c2ccc(F)cc2)CC1 [Pimozide] + Nc1nc2[nH]cc(CCc3ccc(C(=O)N[C@@H](CCC(=O)O)C(=O)O)cc3)c2c(=O)[nH]1 [Pemetrexed] (partner 0.2 µM)
- relative viability (ChaGo-K-1; first compound 0.08 µM): 0.248
- relative viability (ChaGo-K-1; first compound 0.253 µM): 0.277
- relative viability (ChaGo-K-1; first compound 0.8 µM): 0.245
- relative viability (ChaGo-K-1; first compound 2.53 µM): 0.267
- relative viability (ChaGo-K-1; first compound 8 µM): 0.254
- relative viability (RERF-LC-KJ; first compound 0.08 µM): 0.452
- relative viability (RERF-LC-KJ; first compound 0.253 µM): 0.47
- relative viability (RERF-LC-KJ; first compound 0.8 µM): 0.466
- relative viability (RERF-LC-KJ; first compound 2.53 µM): 0.347
- relative viability (RERF-LC-KJ; first compound 8 µM): 0.422
- relative viability (NCI-H2087; first compound 0.08 µM): 0.655
- relative viability (NCI-H2087; first compound 0.253 µM): 0.608
- relative viability (NCI-H2087; first compound 2.53 µM): 0.616
- relative viability (NCI-H2087; first compound 8 µM): 0.642
- relative viability (BEN; first compound 0.08 µM): 0.856
- relative viability (BEN; first compound 0.253 µM): 0.689
- relative viability (BEN; first compound 0.8 µM): 0.766
- relative viability (BEN; first compound 2.53 µM): 0.708
- relative viability (BEN; first compound 8 µM): 0.837
- relative viability (NCI-H1792; first compound 0.08 µM): 0.822
- relative viability (NCI-H1792; first compound 0.253 µM): 0.786
- relative viability (NCI-H1792; first compound 0.8 µM): 0.43
- relative viability (NCI-H1792; first compound 2.53 µM): 0.727
- relative viability (NCI-H1792; first compound 8 µM): 0.356
- relative viability (LU99A; first compound 0.08 µM): 0.277
- relative viability (LU99A; first compound 0.8 µM): 0.179
- relative viability (LU99A; first compound 2.53 µM): 0.185
- relative viability (LU99A; first compound 8 µM): 0.191
- relative viability (EMC-BAC-2; first compound 0.08 µM): 0.464
- relative viability (EMC-BAC-2; first compound 0.253 µM): 0.462
- relative viability (EMC-BAC-2; first compound 0.8 µM): 0.392
- relative viability (EMC-BAC-2; first compound 2.53 µM): 0.428
- relative viability (EMC-BAC-2; first compound 8 µM): 0.438
- relative viability (EKVX; first compound 0.253 µM): 0.336
- relative viability (EKVX; first compound 0.8 µM): 0.362
- relative viability (EKVX; first compound 2.53 µM): 0.397
- relative viability (EKVX; first compound 8 µM): 0.412
- relative viability (LK-2; first compound 0.08 µM): 0.243
- relative viability (LK-2; first compound 0.253 µM): 0.268
- relative viability (LK-2; first compound 0.8 µM): 0.335
- relative viability (LK-2; first compound 8 µM): 0.265
- relative viability (NCI-H1734; first compound 0.08 µM): 0.401
- relative viability (NCI-H1734; first compound 0.253 µM): 0.436
- relative viability (NCI-H1734; first compound 0.8 µM): 0.401
- relative viability (NCI-H1734; first compound 2.53 µM): 0.416
- relative viability (NCI-H1734; first compound 8 µM): 0.434
- relative viability (LOU-NH91; first compound 0.08 µM): 0.389
- relative viability (LOU-NH91; first compound 0.253 µM): 0.474
- relative viability (LOU-NH91; first compound 0.8 µM): 0.395
- relative viability (LOU-NH91; first compound 2.53 µM): 0.384
- relative viability (LOU-NH91; first compound 8 µM): 0.384
- relative viability (NCI-H358; first compound 0.08 µM): 0.171
- relative viability (NCI-H358; first compound 0.253 µM): 0.178
- relative viability (NCI-H358; first compound 0.8 µM): 0.159
- relative viability (NCI-H358; first compound 2.53 µM): 0.172
- relative viability (NCI-H358; first compound 8 µM): 0.147
- relative viability (HCC-78; first compound 0.08 µM): 0.911
- relative viability (HCC-78; first compound 0.8 µM): 0.91
- relative viability (HCC-78; first compound 2.53 µM): 0.872
- relative viability (HCC-78; first compound 8 µM): 0.87
- relative viability (HCC-827; first compound 0.253 µM): 0.228
- relative viability (HCC-827; first compound 0.8 µM): 0.258
- relative viability (HCC-827; first compound 2.53 µM): 0.289
- relative viability (HCC-827; first compound 8 µM): 0.254
- relative viability (NCI-H1650; first compound 0.08 µM): 0.338
- relative viability (NCI-H1650; first compound 0.253 µM): 0.341
- relative viability (NCI-H1650; first compound 0.8 µM): 0.326
- relative viability (NCI-H1650; first compound 2.53 µM): 0.356
- relative viability (NCI-H1650; first compound 8 µM): 0.408
- relative viability (NCI-H2126; first compound 0.08 µM): 0.65
- relative viability (NCI-H2126; first compound 0.253 µM): 0.659
- relative viability (NCI-H2126; first compound 0.8 µM): 0.637
- relative viability (NCI-H2126; first compound 2.53 µM): 0.659
- relative viability (NCI-H2126; first compound 8 µM): 0.652
- relative viability (COR-L 105; first compound 0.08 µM): 0.963
- relative viability (COR-L 105; first compound 0.253 µM): 1.11
- relative viability (COR-L 105; first compound 0.8 µM): 1.07
- relative viability (COR-L 105; first compound 2.53 µM): 1.2
- relative viability (COR-L 105; first compound 8 µM): 0.954
- relative viability (NCI-H1944; first compound 0.08 µM): 0.68
- relative viability (NCI-H1944; first compound 2.53 µM): 0.466
- relative viability (NCI-H1944; first compound 8 µM): 0.512
- relative viability (SW 1573; first compound 0.08 µM): 0.852
- relative viability (SW 1573; first compound 0.253 µM): 0.849
- relative viability (SW 1573; first compound 0.8 µM): 0.831
- relative viability (SW 1573; first compound 2.53 µM): 0.665
- relative viability (SW 1573; first compound 8 µM): 0.558
- relative viability (EPLC-272H; first compound 0.08 µM): 0.319
- relative viability (EPLC-272H; first compound 0.253 µM): 0.285
- relative viability (EPLC-272H; first compound 0.8 µM): 0.271
- relative viability (EPLC-272H; first compound 2.53 µM): 0.179
- relative viability (EPLC-272H; first compound 8 µM): 0.238
- relative viability (SK-MES-1; first compound 0.08 µM): 0.982
- relative viability (SK-MES-1; first compound 0.253 µM): 0.861
- relative viability (SK-MES-1; first compound 0.8 µM): 0.919
- relative viability (SK-MES-1; first compound 2.53 µM): 0.888
- relative viability (SK-MES-1; first compound 8 µM): 0.902
- relative viability (LCLC-97TM1; first compound 0.08 µM): 0.2
- relative viability (LCLC-97TM1; first compound 0.253 µM): 0.177
- relative viability (LCLC-97TM1; first compound 0.8 µM): 0.19
- relative viability (LCLC-97TM1; first compound 2.53 µM): 0.18
- relative viability (LCLC-97TM1; first compound 8 µM): 0.156
